Tests used:
[1] = Steady-state trough serum vancomycin concentration in DFI patients and nondiabetic patients with pneumonia; type: in vivo, human; conditions: 1g q12h; for Trough Concentration of vancomycin: mean ± SD, SD
Description: Clinical samples were collected at Air Force General Hospital, PLA. […] Human blank serum was obtained from healthy blood donors not using vancomycin (Air Force General Hospital, PLA.). The study was approved by the hospital ethics committee. Every patient was given a sufficient description of the study and signed an informed consent prior to the study.
The pretreatment followed for all samples was 10 μL of the IS was added to 20 μL of the standard and unknown serum samples and mixed vigorously for 20 s. Five-hundred microliters of acetonitrile was added, vortexed for 1 min, and centrifuged for 6 min at 12,000 rpm. After transferring the supernatant to a fresh centrifuge tube, it was evaporated to dryness under a stream of nitrogen at room temperature. Two-hundred microliters of mobile phase was added to the resulting residue and vortexed for 1 min; 100 μL was analyzed.
Fifty diabetes mellitus type 2 patients with known or suspected Gram-positive DFI (Wagner score grade 3/4, equivalent to Texas classification of at least B3), and 50 nondiabetic patients with pneumonia requiring antibiotic therapy from 2014 to 2016 were included. […] The estimated ClCr was calculated from serum creatinine using the Cockcroft-Gault formula [29]. CrCl = (140-age in years) × body weight in kg/(serum creatinine in […]) × 0.85 for females). Statistical analysis was performed by SPSS 25.0.

[2] = Stability of vancomycin in serum under various storage conditions (QC samples, HPLC-Q-trap-MS); type: in vitro ADME, human; conditions: serum at 4 °C and 25 °C for 24 h, after three freezing and thawing cycles and stored at −80 °C for 30 days; three concentrations
Description: The IS working solution was diluted with deionized water to give a final concentration of 100 ng/mL. Quality control (QC) samples were prepared in 100 μL of blank serum by adding 10 μL of serially diluted solutions of the substance to determine the limit of quantification, as well as 2 ng/mL (low), 20 ng/mL (medium), and 400 ng/mL (high) concentrations. The L, M, and H of QCs were analyzed at least in duplicate. All solutions were stored at −20 °C and brought to room temperature before use.
The chromatographic separation was performed on an Agilent ZORBAX SB-C18 (4.6 × 150 mm, 5 μm). The mobile phase consisted of water (containing 0.1% formic acid, v/v) and acetonitrile (containing 0.1% formic acid, v/v) and the flow rate was set at 0.5 mL/min. An isocratic elution was performed with 30% of acetonitrile. The total run time was 8 min. The injection volume was 10 μL. […]
The pretreatment followed for all samples was 10 μL of the IS was added to 20 μL of the standard and unknown serum samples and mixed vigorously for 20 s. […] Two-hundred microliters of mobile phase was added to the resulting residue and vortexed for 1 min; 100 μL was analyzed.
For the bench-top stability during handing, QC samples were prepared and kept room temperature (25 °C) for 6 h. […] Stability of sample in autosampler was determined by analyzing the targets after kept in an autosampler at room temperature for 12 h.

In the case of `CN[C@H](CC(C)C)C(=O)N[C@H]1C(=O)N[C@@H](CC(N)=O)C(=O)N[C@H]2C(=O)N[C@H]3C(=O)N[C@H](C(=O)N[C@H](C(=O)O)c4cc(O)cc(O)c4-c4cc3ccc4O)[C@H](O)c3ccc(c(Cl)c3)Oc3cc2cc(c3O[C@@H]2O[C@H](CO)[C@@H](O)[C@H](O)[C@H]2O[C@H]2C[C@](C)(N)[C@H](O)[C@H](C)O2)Oc2ccc(cc2Cl)[C@H]1O` [vancomycin, Vancomycin], the “Trough Concentration of vancomycin” value ([1]; DFI group (n = 50), type 2 diabetes patients) is reported as 8.20 ± 2.83 µg/mL, the “Trough concentration of vancomycin, range” value ([1]; DFI patients (n = 50)) is reported as 4.80 to 14.2 µg/mL and the “Trough Concentration of vancomycin” value ([1]; Nondiabetic group (n = 50), pneumonia patients) is reported as 15.8 ± 5.43 µg/mL. The “Trough concentration of vancomycin, range” value ([1]; nondiabetic patients (n = 50)) was 8.60 to 19.5 µg/mL and the “Stability in serum (in words)” value [2] was “stable”.
